Experimental data taken from ChEMBL document CHEMBL1201862, “PubChem BioAssay data set” (2004).
“And” between values parts separate entries of the source, which are not always exact repeats. Identical values can stand only once. The source made the active and inactive calls. Cut-off read from the data, not from the text of the source, for most assays here: actives have a measured IC50 and inactives only a lower limit.

Assays:
Interleukin-8 [1] = target: T1, Interleukin-8 (Homo sapiens, UniProt P10145); test: SAR analysis of GM-Tri-DAP induced IL-8 secretion in MCF-7/NOD1 cells - Set 2. [Related pubchem assays (depositor defined):AID1575, AID1578, AID2333]; format: functional, cell-based
T1 sequence (P10145 whole entry): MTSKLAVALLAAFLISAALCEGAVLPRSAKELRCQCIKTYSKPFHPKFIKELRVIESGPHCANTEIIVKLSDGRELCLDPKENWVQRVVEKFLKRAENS

Interleukin-8 [2] = target: T1, Interleukin-8; test: SAR analysis of Tumor necrosis factor alpha (TNF-alpha) induced IL-8 secretion in MCF-7/NOD1 cells - Set 2. [Related pubchem assays (depositor defined):AID1575, AID2250, AID2260]; format: functional, cell-based
HEK293 [3] = test: cells; format: functional, cell-based; details: Homo sapiens
HEK293 [4] = test: SAR analysis of compounds that are cytotoxic to HEK293 - Set 3. [Related pubchem assays (depositor defined):AID1575, AID1578, AID1848, AID1849, AID2001, AID2333, AID2334, AID2335, AID2337, AID2469]; format: functional, cell-based; details: Homo sapiens
[5] = target: T2, Nucleotide-binding oligomerization domain-containing protein 2 (Homo sapiens, UniProt Q9HC29); test: PubChem AID 2334; format: functional
HEK293 [6] = test: cells; details: Homo sapiens
HEK293 [7] = test: NOD2 signaling inhibitors in MDP-stimulated cells, cell-based, uHTS, luminescence (AID 2001); format: functional; details: Homo sapiens
[8] = target: T3, Nucleotide-binding oligomerization domain-containing protein 1 (Homo sapiens, UniProt Q9Y239); test: NOD1 signaling inhibitors, SAR follow-up, revised (AID 2333); format: functional
T3 sequence (Q9Y239 whole entry): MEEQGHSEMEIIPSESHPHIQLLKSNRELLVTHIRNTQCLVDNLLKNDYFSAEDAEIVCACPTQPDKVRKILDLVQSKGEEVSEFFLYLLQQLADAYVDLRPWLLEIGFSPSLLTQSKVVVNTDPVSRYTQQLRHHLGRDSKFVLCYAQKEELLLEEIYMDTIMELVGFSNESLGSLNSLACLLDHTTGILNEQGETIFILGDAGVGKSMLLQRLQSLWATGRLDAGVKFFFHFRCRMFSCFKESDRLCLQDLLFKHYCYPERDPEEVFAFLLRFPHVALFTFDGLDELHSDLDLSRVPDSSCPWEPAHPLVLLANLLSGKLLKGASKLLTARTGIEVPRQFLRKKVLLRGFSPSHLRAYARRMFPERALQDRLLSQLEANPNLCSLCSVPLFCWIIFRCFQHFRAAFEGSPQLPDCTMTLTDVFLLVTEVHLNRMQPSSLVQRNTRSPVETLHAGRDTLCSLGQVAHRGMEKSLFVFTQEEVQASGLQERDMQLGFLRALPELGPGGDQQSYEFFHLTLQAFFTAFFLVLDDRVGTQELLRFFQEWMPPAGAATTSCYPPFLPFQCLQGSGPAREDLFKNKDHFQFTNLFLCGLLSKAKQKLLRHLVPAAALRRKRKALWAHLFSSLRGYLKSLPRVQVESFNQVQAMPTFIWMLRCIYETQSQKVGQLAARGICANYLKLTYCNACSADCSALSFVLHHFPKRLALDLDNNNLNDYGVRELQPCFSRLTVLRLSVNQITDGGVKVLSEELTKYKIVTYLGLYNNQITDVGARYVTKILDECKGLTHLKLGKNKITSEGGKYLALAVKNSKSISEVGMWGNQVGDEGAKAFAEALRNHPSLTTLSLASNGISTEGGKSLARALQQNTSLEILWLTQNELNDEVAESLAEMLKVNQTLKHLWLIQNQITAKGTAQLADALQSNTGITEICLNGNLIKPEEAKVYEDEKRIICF

Tumor necrosis factor [9] = target: T4, Tumor necrosis factor (Homo sapiens, UniProt P01375); test: TNFa-triggered NF-kB activation inhibitors, SAR follow-up, cell-based, revised (AID 2337); format: functional
[10] = target: T2, Nucleotide-binding oligomerization domain-containing protein 2; test: NOD2 inhibitors, SAR follow-up, set 2 (AID 2475); format: functional
Tumor necrosis factor [11] = target: T4, Tumor necrosis factor; test: TNFa-triggered NF-kB activation inhibitors, SAR follow-up, cell-based, set 3 (AID 2801); format: functional
[12] = target: T2, Nucleotide-binding oligomerization domain-containing protein 2; test: NOD2 signaling inhibitors, analog potency, SAR follow-up, cell-based, set 3 (AID 2799); format: functional
HEK293 [13] = test: cells; format: functional, cell-based; details: Homo sapiens; remark: listed apart in the source
[14] = target: T3, Nucleotide-binding oligomerization domain-containing protein 1; test: SAR analysis of compounds that inhibit NOD1 - Set 3. [Related pubchem assays (depositor defined):AID1566, AID1575, AID1578, AID1849, AID1852, AID2333, AID2335, AID2466]; format: functional
[15] = target: T3, Nucleotide-binding oligomerization domain-containing protein 1; test: SAR analysis of NF-kappaB dependent luciferase using DAP as an inducer - Set 2. [Related pubchem assays (depositor defined):AID1566, AID1575, AID1578, AID1579, AID1849, AID1852, AID2264]; format: functional
HEK293 [16] = test: SAR analysis of compounds that are cytotoxic to HEK293 - Set 2. [Related pubchem assays (depositor defined):AID1575, AID1578, AID1849, AID2001, AID2333, AID2334, AID2335, AID2337, AID2800]; format: functional, cell-based; details: Homo sapiens
HEK293 [17] = test: NOD1 signaling inhibitors, primary screen, cell-based, luminescence, uHTS (AID 1578); format: functional; details: Homo sapiens
[18] = (§1) Late stage assay provider results from the probe development effort to identify inhibitors of Protein Phosphatase Methylesterase 1 (PME-1): luminescence-based […] dose response assay to determine cytotoxicity of inhibitor compounds. [Related pubchem assays (depositor defined):AID2130, AID2143, AID2171, AID2174, AID2177, AID2232, AID2233, AID2291, AID2363, AID2365, AID2366, AID2368, AID2369, AID2371, AID463124, AID463130, AID463131, AID463132, AID463146, AID463149] Panel member name: Serum-free Media; format: toxicity
[19] = as §1, with “Fetal Calf Serum” for “Serum-free Media”; format: toxicity

T2 sequence (Q9HC29 whole entry, the tested form may be a part): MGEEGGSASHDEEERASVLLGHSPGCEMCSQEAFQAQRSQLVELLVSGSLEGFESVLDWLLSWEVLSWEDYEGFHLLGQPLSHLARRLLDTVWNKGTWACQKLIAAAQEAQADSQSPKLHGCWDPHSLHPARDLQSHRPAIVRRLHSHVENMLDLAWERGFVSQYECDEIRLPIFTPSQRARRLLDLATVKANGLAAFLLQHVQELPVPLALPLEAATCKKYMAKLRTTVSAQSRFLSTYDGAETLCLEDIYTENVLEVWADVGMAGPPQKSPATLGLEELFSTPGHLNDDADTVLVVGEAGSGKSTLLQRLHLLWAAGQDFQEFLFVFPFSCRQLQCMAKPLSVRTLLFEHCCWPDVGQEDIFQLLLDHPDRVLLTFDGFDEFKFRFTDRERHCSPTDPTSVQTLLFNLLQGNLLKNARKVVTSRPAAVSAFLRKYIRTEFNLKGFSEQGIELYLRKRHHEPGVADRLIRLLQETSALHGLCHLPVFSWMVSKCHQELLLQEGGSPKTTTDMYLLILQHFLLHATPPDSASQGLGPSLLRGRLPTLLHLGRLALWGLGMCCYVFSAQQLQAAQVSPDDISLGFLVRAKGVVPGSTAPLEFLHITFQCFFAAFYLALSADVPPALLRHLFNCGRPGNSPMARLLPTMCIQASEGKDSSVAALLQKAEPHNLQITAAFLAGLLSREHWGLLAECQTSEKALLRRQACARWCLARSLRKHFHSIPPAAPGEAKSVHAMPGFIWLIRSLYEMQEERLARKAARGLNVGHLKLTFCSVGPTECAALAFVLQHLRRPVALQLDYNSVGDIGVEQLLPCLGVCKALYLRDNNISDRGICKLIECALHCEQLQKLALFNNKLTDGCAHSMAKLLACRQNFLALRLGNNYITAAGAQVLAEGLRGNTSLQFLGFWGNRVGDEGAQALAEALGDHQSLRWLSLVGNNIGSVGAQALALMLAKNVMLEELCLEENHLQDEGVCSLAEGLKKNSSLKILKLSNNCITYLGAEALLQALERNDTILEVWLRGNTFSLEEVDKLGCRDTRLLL
T4 sequence (P01375 whole entry, the tested form may be a part): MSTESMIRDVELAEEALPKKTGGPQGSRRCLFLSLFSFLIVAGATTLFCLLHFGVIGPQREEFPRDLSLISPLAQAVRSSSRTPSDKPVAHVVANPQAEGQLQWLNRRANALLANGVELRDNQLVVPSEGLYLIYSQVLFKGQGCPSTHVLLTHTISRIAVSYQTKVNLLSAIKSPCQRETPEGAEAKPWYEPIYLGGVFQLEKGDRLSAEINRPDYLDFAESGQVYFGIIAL

C/C=C/Cn1c(SCCCc2ccccc2)nc2c1c(=O)[nH]c(=O)n2C
IC50 (Interleukin-8 [1]): 3.43 µM (active) | IC50 (Interleukin-8 [2]): > 25 µM (inactive) | IC50 (HEK293 [3]): > 20 µM (inactive) | IC50 (HEK293 [4]): > 20 µM (inactive) | IC50 [5]: 16.9 µM (active) | IC50 (HEK293 [6]): > 20 µM (inactive) | IC50 (HEK293 [7]): 16.2 µM (inactive) | IC50 [8]: 1.81 µM (active) | IC50 (Tumor necrosis factor [9]): 62.7 µM (inactive) | IC50 [10]: 4.18 µM (active) | IC50 (Tumor necrosis factor [11]): 18.2 µM (active) and 18.6 µM (inactive) | IC50 [12]: 7.97 µM (active) and 10.6 µM (active) | IC50 (HEK293 [13]): > 20 µM (inactive) | IC50 [14]: 1.36 µM (active) | IC50 [15]: 14.4 µM (active) | IC50 (HEK293 [16]): > 20 µM (inactive) | EC50 (HEK293 [17]): 6.37 µM (active)

CC[C@]1(c2ccccc2C)C(=O)N(C(=O)OC)N1C(=O)OC
CC50 [18]: > 50 µM (inactive) | CC50 [19]: > 50 µM (inactive)
